4 molecules from patent publication US12338199B2, “Bis-octahydrophenanthrene carboxamides and protein conjugates thereof” (REGENERON PHARMACEUTICALS, INC., priority 2017, dated 2025) can be followed below.

pEC50, pIC50: −log10 of the molar value. Read-outs that look alike come from different tables or passages of the source. Bounds are passed on as bounds.

The target in one series is T1, LXR beta (Homo sapiens, UniProt P55055).
T1 construct: LXR alpha or beta LBD-GST; purchased ThermoFisher PV4658
T1 sequence (P55055 222-460 limits assumed): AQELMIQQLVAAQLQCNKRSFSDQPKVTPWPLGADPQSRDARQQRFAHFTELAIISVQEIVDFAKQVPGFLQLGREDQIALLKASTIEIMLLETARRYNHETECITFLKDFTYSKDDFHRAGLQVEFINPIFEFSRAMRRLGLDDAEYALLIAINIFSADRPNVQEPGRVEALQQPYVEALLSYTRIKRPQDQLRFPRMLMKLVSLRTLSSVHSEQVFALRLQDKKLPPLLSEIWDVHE
Nature of the series: LanthaScreen TR-FRET LXR beta Coactivator Assay (cell-free binding). The procedure: (§1) To evaluate the ability of novel LXR agonists to bind to the LXR alpha and beta receptor, a cell-free binding assay was performed using a LanthaScreen TR-FRET LXR alpha Coactivator Assay Kit (ThermoFisher, Cat # PV4655) and LXR beta Coactivator Assay Kit (ThermoFisher, Cat # PV4658). The assay was performed according to the manufacturer's instructions. Briefly, a 3-fold serial dilution of LXR agonists were prepared in 100% DMSO starting at 100 μM (100× of final). Serial dilutions were further diluted 50-fold in nuclear receptor buffer F with 5 mM DTT, and transferred to a 384-well assay plate. Next, Fluorescein-D22, LXR alpha or beta LBD-GST, and Tb anti-GST antibody was sequentially added to 384-well assay plate. The plate was then incubated at rt for 2.5 hours while being protected from light. […] The IC50 values were determined using a four-parameter logistic equation over a 12-point response curve (GraphPad Prism).
(In general: In TR-FRET formats the signal depends on donor and acceptor labels being close together.)

Series [1] concerns THP1/LXR-Luc cells. Nature of the series: THP1/LXR-Luc luciferase reporter bioassay. It is filed as cell-based. The settings on record: Homo sapiens, THP-1, 48 hours; for pEC50: read-out: Activation of THP1/LXR-Luc cells: EC50; for Emax: relative to maximum activation of free payload 9d, read-out: Activation of THP1/LXR-Luc cells: Fold of activation. From the text:
The fold activation in the cell-based assays (as described in Example 68, below) was defined based on the maximum activation of the free payload 9d.
(§2) A bioassay was developed to assess the activity of LXR agonists after internalization of an agonist or of a ncADC into cells and binding to LXR, a nuclear receptor, using a commercially available LXR reporter (referred to as LXR-Luc) that contains the firefly luciferase gene under control by minimal CMV promoter and tandem repeats of the LXR transcriptional response element. For this assay, a THP1 cell line, which is a human monocytic leukaemia line, was engineered to express full length human Her2 (expressing amino acids M1 through V1255 of accession number NP_004439.2). The subsequent stable cell line was further transduced with a Cignal LXR Luc Reporter (Qiagen, Cat # CLS-7041L). The resulting stable cell line is referred to herein as THP1/Her2/LXR-Luc. The Her2 cell surface expression on THP1/Her2/LXR-Luc cell line was confirmed by FACS (data not shown).
Additionally, a THP1 cell line was transduced with a Cignal LXR Luc Reporter (Qiagen, Cat # CLS-7041L) without the addition of Her2. The resulting stable cell line is referred to herein as THP1/LXR-Luc. All of the antibodies used in the subsequent bioassays were assessed for their ability to internalize and release a payload on the bioassay cell line used.
(§3) This example assessed the ability of the LXR agonists provided herein, reference compounds, and anti-Her2 antibody-LXR ncADC to activate LXR. The samples were tested in the THP1/LXR-Luc/Her2 bioassay. For the assay, either THP1/LXR-Luc cells or THP1/LXR-Luc/Her2 cells were seeded onto white 96 well plates at 30,000 cells/well in media containing RPMI supplemented with 10% FBS and pencillin/streptomycin (complete media). Subsequently 3-fold serial dilutions of antibody drug conjugates, unconjugated antibodies, or free payloads were added to the cells at final concentration ranging from 100 nM to 0.01 nM. After 48-hour or 72-hour incubation, luciferase activity was determined after the addition of One-Glo™ reagent (Promega, Cat # E6130) to each well of cells. Relative light units (RLUs) were measured on a Victor luminometer (PerkinElmer) and the EC5o values were determined using a four-parameter logistic equation over a 10-point dose response curve (GraphPad Prism) (FIG. 15). The fold activation is calculated based on the maximum activation of the free payload 9d.
Background: A reporter such as luciferase makes a cellular process visible.

The nature of series [2]: Water solubility and pH stability of phosphate analogs. The format is physicochemical. The following applies: for Stability: pH as given in the value, 17c converted to 17b in the presence of methanol. From the text: The phosphoric acid-analog 17a was obtained from the treatment of phenol 9g with diphosphoryl chloride 18. Compounds 17b and 17c were obtained from the acidic deprotection of 17a with TFA.

The next series concerns the target T2, LXR alpha (Homo sapiens, UniProt Q13133).
T2 construct: LXR alpha or beta LBD-GST; purchased ThermoFisher PV4655
T2 sequence (Q13133 209-447 limits assumed): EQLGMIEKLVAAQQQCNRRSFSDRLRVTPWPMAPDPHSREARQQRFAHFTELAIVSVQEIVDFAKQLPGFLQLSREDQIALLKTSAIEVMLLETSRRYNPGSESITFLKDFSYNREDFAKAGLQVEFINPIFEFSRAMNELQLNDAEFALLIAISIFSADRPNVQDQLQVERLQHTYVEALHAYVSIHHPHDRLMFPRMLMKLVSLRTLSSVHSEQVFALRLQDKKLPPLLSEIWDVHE
Kind of series: LanthaScreen TR-FRET LXR alpha Coactivator Assay (cell-free binding). The method, then:
as §1

A further series has as its system ABCA1. Kind of series: ABCA1 mRNA induction in differentiated THP-1 macrophages (TaqMan). The settings on record: THP1 macrophages, 24-hour treatment; magnitude in words. It is filed as cell-based, human. The procedure: (§4) To determine the ability of LXR agonists to activate ABCA1 and ABCG1 genes, the mRNA levels of these two genes in differentiated macrophages was measured. […] Cells were differentiated into macrophages by treatment with 100 nM Phorbol-12 myristate 13-acetate (Sigma, # P8139), which was added to the media described above, for 72 hours. […] Chloroform was then used for phase separation. The aqueous phase, containing total RNA, was purified using MagMAX™-96 for Microarrays Total RNA Isolation Kit (Ambion, Cat # AM1830) and reverse-transcribed into cDNA using SuperScript® VILO™ Master Mix (Invitrogen, Cat #11755050) as per the manufacturer's instructions. TaqMan® was performed using Gene Expression Master Mix, the ABI 7900HT Sequence Detection System (Applied Biosystems) and the primers and probes indicated below in Table 9. The GAPDH gene was used as the internal control gene to normalize any cDNA input differences.
In general terms: In qPCR the cycle at which signal appears reflects the starting amount.

The test system of the next series is THP1/LXR-Luc/Her2 cells. Kind of series: THP1/LXR-Luc/Her2 luciferase reporter bioassay. It is filed as cell-based. The settings on record: Homo sapiens.
Text: as §2, §3

Another series has as its system ABCG1. Kind of series: ABCG1 mRNA induction in differentiated THP-1 macrophages (TaqMan). It is filed as cell-based, human. The settings on record: THP1 macrophages, 24-hour treatment; magnitude in words. The method, then: as §4
In series [3] the test system is THP1/LXR-Luc cells. Nature of the series: LXR-luciferase reporter bioassay in PMA-differentiated THP1/LXR-Luc cells. The format is cell-based, human. The settings on record: for pEC50: Homo sapiens, THP-1, 48 h, read-out: EC50. From the text:
To test the efficacy of anti-MSR1 antibody-LXR conjugates in vitro, a cell-based LXR responsive luciferase reporter assay was developed. To generate the assay cell line, a LXR regulated luciferase reporter gene [Cignal Lenti LXR Reporter (luc) kit (Qiagen, Cat # CLS-001L)] was transduced into THP1 cells, and cells were selected for two weeks in puromycin. The lentivirus expresses the firefly luciferase gene under the control of a minimal CMV promoter and tandem repeats of the LXR transcriptional response element. The resulting cell line is referred to as THP1/LXR-Luc cells.
THP1/LXR-Luc cells were seeded onto 96 well plates at 40,000 cells/well in media containing RPMI supplemented with 10% FBS and pencillin/streptomycin and subsequently differentiated with 200 nM Phorbol Myristate Acetate (PMA) for 3 days. After the 3-day differentiation period, three-fold serial dilutions of antibody drug conjugates, unconjugated antibodies, or free payloads in fresh media were added to the cells at final concentration ranging from 100 nM to 0.01 nM. Media alone served as a blank control. Forty-eight hours later, luciferase activity was determined after the addition of One-Glo™ reagent (Promega, Cat # E6130) to each well. Relative light units (RLUs) were measured on a Victor luminometer (PerkinElmer) and EC50 values were determined using a four-parameter logistic equation over a 10-point dose response curve (GraphPad Prism). The signal to noise (S/N) was determined by calculating the ratio of RLU of standard one over RLU of standard eight for each of the unconjugated anti-MSR1 antibodies or free payloads. “LP #” represents a linker-payload for which the corresponding structures are provided elsewhere herein, and “P #” represents a payload for which the corresponding structures are provided elsewhere herein.

The mark [4] stands for this setting: TR-FRET, 12-point curve, read-out: Cell free binding LXRβ IC50.
[5] abbreviates: THP-1, 48 h, 48-hour time point.
[6] abbreviates: THP-1, 48 h, 48 hours, unit inferred, values correspond to M.
Setting [7] is: THP-1, 72 h, 72-hour time point.
Where [8] appears, read: TR-FRET, 12-point curve, read-out: Cell free binding LXRα IC50.

A word on the pIC50: it is the IC50 on a negative log10 scale, so that one unit is a factor of ten. As to `C[C@]1(C(=O)NC(=O)[C@@]2(C)CCC[C@]3(C)c4cc(OP(=O)(O)O)ccc4CC[C@@H]23)CCC[C@]2(C)c3cc(N)ccc3CC[C@@H]12` [Compound 17c, (4bS,8S,8aR)-8-((1S,4aS,10aR)-6-Amino-1,4a-dimethyl-1,2,3,4,4a,9,10,10a-octahydrophenanthrene-1-carbonylcarbamoyl)-4b,8-dimethyl-4b,5,6,7,8,8a,9,10-octahydrophenanthren-3-yl dihydrogen phosphate], the pIC50 at LXR beta was more than 8.00; on LXR alpha, less than 7.00. In addition, in the series on THP1/LXR-Luc cells [1], the pEC50 is not below 9.00. Further, in the series with THP1/LXR-Luc cells [1], the Emax was more than 75%. Moreover, the Stability result in series [2] was “not stable at pH 5”. Also, the Solubility in water result in series [2] (under basic and neutral conditions) is given as “soluble in water”.
With `C[C@]1(C(=O)NC(=O)[C@@]2(C)CCC[C@]3(C)c4cc(NC(=O)CN)ccc4CC[C@@H]23)CCC[C@]2(C)c3cc(O)ccc3CC[C@@H]12` [Compound 9h, (1S,4aS,10aR)-6-(2-Aminoacetamido)-N-((1S,4aS,10aR)-6-hydroxy-1,4a-dimethyl-1,2,3,4,4a,9,10,10a-octahydrophenanthrene-1-carbonyl)-1,4a-dimethyl-1,2,3,4,4a,9,10,10a-octahydrophenanthrene-1-carboxamide], the pIC50 on LXR beta (setting [4]) and on LXR alpha (setting [8]) was more than 9.00 in each case. Further, the pEC50 is not below 9.00 in the series with THP1/LXR-Luc cells [1]; 9.30 in the series on THP1/LXR-Luc/Her2 cells (setting [5]); 9.30 in the series with THP1/LXR-Luc/Her2 cells (setting [6]); 9.19 in the series with THP1/LXR-Luc/Her2 cells (setting [7]); 9.19 in the series on THP1/LXR-Luc/Her2 cells (THP-1, 72 h, 72 hours). In the series with THP1/LXR-Luc cells [1], the Emax is more than 75%. Moreover, in the series on ABCA1, the “ABCA1 induction EC50” value was “sub-picomolar”. In addition, in the series with ABCG1, the “ABCG1 induction EC50” value is “sub-picomolar”.
At LXR beta, `COP(=O)(O)Oc1ccc2c(c1)[C@@]1(C)CCC[C@](C)(C(=O)NC(=O)[C@@]3(C)CCC[C@]4(C)c5cc(N)ccc5CC[C@@H]34)[C@@H]1CC2` [Compound 17b, (4bS,8S,8aR)-8-((1S,4aS,10aR)-6-Amino-1,4a-dimethyl-1,2,3,4,4a,9,10,10a-octahydrophenanthrene-1-carbonylcarbamoyl)-4b,8-dimethyl-4b,5,6,7,8,8a,9,10-octahydrophenanthren-3-yl methyl hydrogen phosphate] gave a negative-log IC50 (pIC50) of more than 8.00. In addition, in the series with THP1/LXR-Luc cells [1], the pEC50 was 7.00 to 8.00 and the Emax was more than 75%. Further, the Stability entry in series [2] is “stable at pH 5-8”. At LXR alpha, this molecule gave a pIC50 of 7.00 to 8.00.
`C[C@]1(C(=O)NC(=O)[C@@]2(C)CCC[C@]3(C)c4cc(NC(=O)[C@@H](N)CO)ccc4CC[C@@H]23)CCC[C@]2(C)c3cc(O)ccc3CC[C@@H]12` [Compound 9j, (1S,4aS,10aR)-6-((S)-2-Amino-3-hydroxypropanamido)-N-((1S,4aS,10aR)-6-hydroxy-1,4a-dimethyl-1,2,3,4,4a,9,10,10a-octahydrophenanthrene-1-carbonyl)-1,4a-dimethyl-1,2,3,4,4a,9,10,10a-octahydrophenanthrene-1-carboxamide]: the pEC50 with THP1/LXR-Luc cells [3] (48-hour time point, stimulation of THP1/Luc cells) was 8.68 to 9.43; in the series with THP1/LXR-Luc cells [3] (PMA-differentiated THP1/LXR-Luc cells, 48 hours, luciferase activity (One-Glo), 10-point dose response 100 nM to 0.01 nM), 9.34; with THP1/LXR-Luc cells [1], not below 9.00; in the series with THP1/LXR-Luc/Her2 cells (setting [5]), 9.41; with THP1/LXR-Luc/Her2 cells (setting [6]) it was 9.41; with THP1/LXR-Luc/Her2 cells (setting [7]), 9.33. The same molecule showed a pEC50 with THP1/LXR-Luc/Her2 cells (THP-1, 72 h, 72 hours) of 9.33. Further, in the series on THP1/LXR-Luc cells [3] (PMA-differentiated THP1/LXR-Luc cells, 48 hours, luciferase activity), the “S/N (signal to noise, ratio of RLU of standard one over RLU of standard eight)” value worked out at 5.7. Besides, the pIC50 at LXR beta (setting [4]) and on LXR alpha (setting [8]) was more than 8.00 throughout. Further, the Emax with THP1/LXR-Luc cells [1] is more than 75%.
